# Experimental data from patent publication US8304442B2, “Compounds having immunomodulator activity” (Ganial Immunotherapeutics, Inc., priority 2005, dated 2012).
# Key:
# [1] = system: splenic mononuclear cells (SMNC); experiment: In vitro proliferation and cytokine synthesis by ConA-stimulated splenic mononuclear cells; assay type: cell-based, mice
# Method: (§1) Peritoneal macrophages (PM) and splenic mononuclear cells (SMNC) were isolated from normal mice, were cultured in nutrient medium and stimulated with LPS and/or ConA, respectively in the absence or presence of GIT27. […] GIT27 had no effect on MIF expression in either cell type, on proliferation of SMNC, and on IL-10 and Interferon (IFN) gamma production by SMNC.
# [2] = system: splenic mononuclear cells (SMNC); experiment: Ex vivo proliferation and cytokine synthesis of SMNC isolated from GIT27 treated mice; assay type: in vivo; settings: mice treated 7 days i.p. 0.5 mg/mouse or p.o. 2.5 mg/mouse
# Method: (§2) These experiments were carried out to explore if intraperitoneal (i.p.) or per os (p.o.) treatment of mice with GIT27 could influence the proliferative response of SMNC and the production of IL-1β, IL-10, TNF-α, IFN-γ and MIF from isolated PM and SMNC. PM and SMNC isolated from mice treated in vivo with GIT27 for 7 consecutive days i.p. (0.5 mg/mouse), or p.o. (2.5 mg/mouse), or isolated from control animals that received GIT27 vehicle (Na2HPO4/H2O), or were without any treatment. 24 h after the last GIT27 treatment, PM and SMNC were collected for further in vitro stimulation and analysis.
# [3] = system: type II CIA; experiment: Type II collagen-induced arthritis (CIA); assay type: in vivo, mice; settings: therapeutic
# Method: To evaluate the therapeutic effect of GIT27 in arthritis, mice developing type II CIA were treated for 10 consecutive days. […] Control mice were treated under the same experimental regime with the vehicle of GIT27.
# The vehicle-treated control mice rapidly develop full clinical signs of type II CIA with a progressive increment of the arthritic clinical scores and severe hind paws oedema. This clinical picture was reflected by severe inflammatory arthritis as indicated by the high the progressive increment of the arthritic histological scores determinated by histological evaluation.
# [4] = system: Peritoneal macrophages (PM); experiment: Ex vivo cytokine synthesis of PM isolated from GIT27 treated mice; assay type: in vivo; settings: mice treated 7 days i.p. 0.5 mg/mouse or p.o. 2.5 mg/mouse
# Method: as §2
# [5] = system: DNB-induced colitis; experiment: DNB-induced colitis; assay type: in vivo, mice
# Method: Within 5 days after challenge with dinitrobenzene sulfonic acid (DNB), mice develop colitis. The disease severity is evaluated based on a macroscopic score. The vehicle-treated control mice and untreated mice developed colitis with a predictable and progressive increase in inflammation and body weight loss. […] The colons of the control mice and of the GIT27 treated mice were removed, sectioned, fixed, and stained with hematoxylin and eosin. […] The tissue myeloperoxidase activity is a well established marker to assess the inflammatory cell (mainly neutrophils) infiltration. […] We counted an average of 8,9±1.2 (means±SD) cells/high power field in the of DNB-induced animals, whereas there were only 3.37±0.8 cells/high-power field in DNB-induced animals pretreated with GIT27 (p<0.0001).
# [6] = system: Peritoneal macrophages (PM); experiment: In vitro cytokine synthesis by LPS-stimulated peritoneal macrophages; assay type: cell-based, mice
# Method: as §1
# [7] = system: MLD-STZ induced diabetes; experiment: Diabetes induced by multiple low doses of streptozotocin; assay type: in vivo, CBA/H mice; settings: prophylactic
# Description: Both i.p and p.o. treatment with GIT27 suppressed clinical development of diabetes that is induced in CBA/H mice by multiple low doses of streptozotocin. CBA/H mice developed sustained hyperglycaemia over a 2-week period following MLD-STZ injections. As expected, CBA/H control mice treated with the vehicle of GIT27 either i.p. or p.o. develop diabetes with sustained hyperglycaemia developed over a 2-week period following MLD-STZ injections.
# [8] = system: LPS-induced lethality; experiment: LPS-induced lethality in vivo; design: species or system mice; settings: for protection from LPS-induced lethality: therapeutic
# Method: As expected, most of the control mice either untreated or that received the vehicle of GIT27 succumbed to LPS-challenge within 3 days. […] In contrast, the treatment with GIT27 given either po or ip protect the mice from the lethal effects of LPS in a dose-dependent fashion. When given p.o., GIT27 was effective at the dose of 2.5 mg/mouse and dosed out both at 1.5 and 3 mg/mouse.
# [9] = system: oxazolone-induced hypersensitivity; experiment: Oxazolone-induced dermatitis; assay type: in vivo, mice
# Method: While the first application of oxazolone sensitizes the mice, the second elicits the hypersensitivity reaction. The dermatitis manifestations appear 18 hours after the second epicutaneous exposure to oxazolone, both ear thickness and weight markedly and progressively increase. The in vivo studies to assess the pharmacological activity of GIT27, were planned with two set of experimental. In the first set, the mice were treated during or before the sensitization phase. […] To evaluate the effects of GIT27 on the elicitation phase of oxazolone-induced dermatitis, the treatment with GIT27 was given one hour after the second epicutancous exposure to oxazolone, when start the progression of the immunoinflammatory responses.
# [10] = system: CAR-induced pleurisy; experiment: Carrageenan (CAR) induced pleurisy; assay type: in vivo, mice; settings: prophylactic treatment
# Description: GIT27 powerfully suppresses CAR-induced pleurisy in mice All the mice that were challenged with CAR and left untreated or treated with the vehicle of GIT27 developed an acute pleurisy, with production of turbid exudate, PMNs infiltration, and myeloperoxidase (MPO) activity accumulation in the lung.
# [11] = system: NF-kB; experiment: LPS-induced NF-kB DNA binding in monocyte-derived human macrophages; assay type: cell-based
# [12] = system: IL-10; settings: J. Exp Med.; cited from earlier work
# [13] = 10 consecutive days from clinical score ≧1, vs vehicle
# [14] = treated during or before the sensitization phase
compound,measurement,setting,value
"O=C(O)CC1CC(c2ccccc2)=NO1 (centres unmarked) [GIT27, 3-phenyl-4,5-dihydro-5-isoxazoleacetic acid]",MIF expression in SMNC,[1],no effect
same,IL-10 production by SMNC,[1]; ConA stimulated,no effect
same,Interferon (IFN) gamma production by SMNC,[1]; ConA stimulated,no effect
same,production of TNF α by SMNC,[1]; ConA stimulated,markedly inhibited
same,proliferation of SMNC,[1]; ConA stimulated,no effect
same,IFN-γ production by SMNC upon stimulation,[2],normal capacity to produce
same,IL-1β production by SMNC upon stimulation,[2],normal capacity to produce
same,IL-10 production by SMNC upon stimulation,[2],normal capacity to produce
same,MIF expression by SMNC,[2],normal expression pattern
same,TNF-α production by SMNC upon stimulation,[2],normal capacity to produce
same,proliferation of SMNC,[2],normal capacity to proliferate
same,clinical arthritic scores,[3]; [13],lower
same,histological arthritic scores,[3]; [13],lower
same,progression of the arthritic disease,"[3]; 10 consecutive days, potency comparable to dexamethasone",significantly slower progression
same,MIF expression by PM upon mitogenic stimulation,[4],normal pattern
same,synthesis of IL-1β by PM,[4],impaired synthesis
same,synthesis of IL-10 by PM,[4],impaired synthesis
same,synthesis of TNF α by PM,[4],impaired synthesis
same,inflammatory cell infiltration (colon myeloperoxidase activity),"[5]; 5 days after induction of colitis, p<0.0001",significant reduction
same,infiltrating neutrophils in histology samples,"[5]; means±SD, DNB-induced animals pretreated, p<0.0001",3.37±0.8 cells/high-power field
same,tissue damage (colon histology),"[5]; treated before DNB-induced colitis, vs control mice",significantly reduced
same,weight loss,[5]; vs control groups,significant reduction
same,increase in colon weight,[5]; vs controls,significantly lower
same,progression of inflammatory colitis (macroscopic score),"[5]; vs controls, p<0.001",significantly attenuated
same,MIF expression in PM,[6],no effect
same,production of IL-1β by PM,[6]; LPS stimulated,inhibited
same,production of IL-10 by PM,[6]; LPS stimulated,inhibited
same,production of TNF α by PM,[6]; LPS stimulated,markedly inhibited
same,diabetogenic effect of MLD-STZ (hyperglycaemia),[7]; i.p.,significantly reduced
same,development of hyperglycaemia,[7]; p.o.,significantly reducing
same,protection from LPS-induced lethality,"[8]; i.p., between 0.25 and 0.5 mg/mouse",dose-dependent protection
same,LPS-induced lethality,"[8]; p.o. and i.p., prophylactic regime (-24 and -1 hour prior to LPS)",significantly reducing
same,protection from LPS-induced lethality,"[8]; p.o., 2.5 mg/mouse",effective
same,protection from LPS-induced lethality,"[8]; p.o., 1.5 and 3 mg/mouse",dosed out
same,LPS-induced lethality,"[8]; therapeutic administration, overall",powerfully counteracts
same,ear thickness,[9]; elicitation phase: treated one hour after second exposure to oxazolone,significant decrease
same,increment of ear thickness,[9]; [14],significantly suppressed
same,increment of ear weight,[9]; [14],significantly suppressed
same,PMNs infiltration,[10],reduced
same,myeloperoxidase (MPO) activity accumulation in the lung,[10],reduced
same,production of exudate,[10],reduced
same,overall effect on CAR-induced pleurisy,[10]; comparable to antibody against mouse TNF-alpha,powerful protective effect
same,DNA binding of NF-kB induced by LPS,[11],powerfully inhibits in a dose-dependent fashion
Cyclosporin A,IL-10 synthesis in vitro,[12],down-regulates
